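1) Cells in 96-well plates. 2) Compound, 48 h, 5 concentrations. 3) Linear interpolation between surrounding doses. 4) Unreached endpoint = highest concentration. GI50 marks 50% less growth. The concentration for full growth arrest is given as TGI.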
Columns and labels:
Experiment in all cases: NCI anticancer screen, dose series, 48 h
UACC-62 melanoma = system: UACC-62 melanoma
HT29 colon = system: HT29 colon
KM12 colon = system: KM12 colon
SNB-75 CNS = system: SNB-75 CNS
K-562 leukemia = system: K-562 leukemia
NCI-H522 lung = system: NCI-H522 lung
U251 CNS = system: U251 CNS
SK-OV-3 ovarian = system: SK-OV-3 ovarian
TK-10 renal = system: TK-10 renal
OVCAR-3 ovarian = system: OVCAR-3 ovarian

Row | Structure (SMILES) | TGI (UACC-62 melanoma) [µM] | TGI (HT29 colon) [µM] | TGI (KM12 colon) [µM] | TGI (SNB-75 CNS) [µM] | TGI (K-562 leukemia) [µM] | TGI (NCI-H522 lung) [µM] | TGI (U251 CNS) [µM] | TGI (SK-OV-3 ovarian) [µM] | TGI (TK-10 renal) [µM] | GI50 (UACC-62 melanoma) [µM] | GI50 (HT29 colon) [µM] | GI50 (KM12 colon) [µM] | GI50 (SNB-75 CNS) [µM] | GI50 (NCI-H522 lung) [µM] | GI50 (U251 CNS) [µM] | GI50 (SK-OV-3 ovarian) [µM] | GI50 (TK-10 renal) [µM] | GI50 (OVCAR-3 ovarian) [µM] | TGI (OVCAR-3 ovarian) [µM] | GI50 (K-562 leukemia) [µM]
1 | O[C@]12c3ccccc3C1CCCCC2N1CCOCC1 (some centres not stated) | > 100 | > 100 | > 100 | > 100 | > 100 | > 100 | > 100 | > 100 | > 100 | – | – | – | – | – | – | – | – | – | – | –
2 | C=C(C)[C@@H]1CC[C@]2(C(=O)n3ccnc3)CC[C@]3(C)[C@H](CC[C@@H]4[C@@]5(C)CCCNC(C)(C)[C@@H]5CC[C@]43C)[C@@H]12 | 3.06 | 2.17 | 3.11 | 10.1 | – | 3.71 | 3.14 | 16.2 | 6.82 | 1.6 | 0.785 | 1.68 | 2.48 | 1.91 | 1.7 | 3.72 | 2.58 | 1.67 | 3.14 | –
3 | O=C1c2ccccc2-c2c1c1ccc([N+](=O)[O-])cc1c(=O)n2CCCCl | > 100 | > 100 | > 100 | – | > 100 | > 100 | > 100 | > 100 | > 100 | 20.3 | 65 | > 100 | – | 86.8 | 3.08 | 63.4 | 37.8 | 4.91 | 77 | 25.7
4 | CN1CCOCCOCCOc2ccccc2NC(=O)c2nc(cnc2N)-c2ccc(cc2)S1(=O)=O | – | – | – | 17.7 | – | > 100 | > 100 | > 100 | 49.4 | – | – | – | 2.85 | 5.55 | 5.16 | 7.12 | 11.3 | – | – | –
5 | O=C(Nc1ccc(Br)cc1)Nc1cccc(Br)c1 | – | – | – | 63 | – | – | – | > 100 | – | – | – | – | 10.2 | – | – | 39.4 | – | – | – | –
6 | Nc1c(C(=O)Nc2ccccc2O)[n+]([O-])c2ccccc2[n+]1[O-] | – | > 100 | > 100 | > 100 | > 100 | > 100 | > 100 | > 100 | – | – | – | – | – | – | – | – | – | – | > 100 | –
7 | CCOC(=O)[C@@H]1C[C@@H]1c1ccc(O)c(O)c1 | 27 | > 100 | 82.2 | – | 32.9 | 26.5 | > 100 | > 100 | > 100 | – | – | – | – | – | – | – | – | – | 67.8 | –
8 | CC(C)=CC(=O)CC(=O)C(=O)NCCNC(=O)C(=O)CC(=O)C=C(C)C | > 50 | > 50 | > 50 | > 50 | – | – | > 50 | > 50 | > 50 | – | – | – | – | – | – | – | – | – | > 50 | –
9 | O=C(Nc1ccc(Cl)c(Cl)c1)C1C(=O)N(c2ccc(Cl)c(Cl)c2)C(=O)/C1=N\O (configuration not stated) | > 100 | > 100 | – | > 100 | > 100 | > 100 | > 100 | > 100 | > 100 | – | – | – | – | – | – | – | – | – | > 100 | –
10 | CC(C)CCCC(C)[C@H]1CCC2[C@@H]3CCC4Cc5nc6c(nc5C[C@]4(C)C3CC[C@@]21C)CC1CC[C@@H]2C(CC[C@@]3(C)C2CC[C@@H]3O)[C@@]1(C)C6 (some centres not stated) | > 100 | > 100 | > 100 | > 100 | > 100 | – | > 100 | > 100 | > 100 | – | – | – | – | – | – | – | – | – | > 100 | –

Reference: PubChem BioAssay (NCI)
